Test results from ChEMBL document CHEMBL2074316, “Multidrug resistance protein-mediated transport of chlorambucil and melphalan conjugated to glutathione” (Br J Cancer, 1998).

Target: Multidrug resistance-associated protein 1 (Homo sapiens, UniProt P33527)
Assay: TP_TRANSPORTER: uptake in membrane vesicle from MRP1-expressing HeLa cells
Format: functional, cell membranes

Sequence of Multidrug resistance-associated protein 1 (P33527 whole entry): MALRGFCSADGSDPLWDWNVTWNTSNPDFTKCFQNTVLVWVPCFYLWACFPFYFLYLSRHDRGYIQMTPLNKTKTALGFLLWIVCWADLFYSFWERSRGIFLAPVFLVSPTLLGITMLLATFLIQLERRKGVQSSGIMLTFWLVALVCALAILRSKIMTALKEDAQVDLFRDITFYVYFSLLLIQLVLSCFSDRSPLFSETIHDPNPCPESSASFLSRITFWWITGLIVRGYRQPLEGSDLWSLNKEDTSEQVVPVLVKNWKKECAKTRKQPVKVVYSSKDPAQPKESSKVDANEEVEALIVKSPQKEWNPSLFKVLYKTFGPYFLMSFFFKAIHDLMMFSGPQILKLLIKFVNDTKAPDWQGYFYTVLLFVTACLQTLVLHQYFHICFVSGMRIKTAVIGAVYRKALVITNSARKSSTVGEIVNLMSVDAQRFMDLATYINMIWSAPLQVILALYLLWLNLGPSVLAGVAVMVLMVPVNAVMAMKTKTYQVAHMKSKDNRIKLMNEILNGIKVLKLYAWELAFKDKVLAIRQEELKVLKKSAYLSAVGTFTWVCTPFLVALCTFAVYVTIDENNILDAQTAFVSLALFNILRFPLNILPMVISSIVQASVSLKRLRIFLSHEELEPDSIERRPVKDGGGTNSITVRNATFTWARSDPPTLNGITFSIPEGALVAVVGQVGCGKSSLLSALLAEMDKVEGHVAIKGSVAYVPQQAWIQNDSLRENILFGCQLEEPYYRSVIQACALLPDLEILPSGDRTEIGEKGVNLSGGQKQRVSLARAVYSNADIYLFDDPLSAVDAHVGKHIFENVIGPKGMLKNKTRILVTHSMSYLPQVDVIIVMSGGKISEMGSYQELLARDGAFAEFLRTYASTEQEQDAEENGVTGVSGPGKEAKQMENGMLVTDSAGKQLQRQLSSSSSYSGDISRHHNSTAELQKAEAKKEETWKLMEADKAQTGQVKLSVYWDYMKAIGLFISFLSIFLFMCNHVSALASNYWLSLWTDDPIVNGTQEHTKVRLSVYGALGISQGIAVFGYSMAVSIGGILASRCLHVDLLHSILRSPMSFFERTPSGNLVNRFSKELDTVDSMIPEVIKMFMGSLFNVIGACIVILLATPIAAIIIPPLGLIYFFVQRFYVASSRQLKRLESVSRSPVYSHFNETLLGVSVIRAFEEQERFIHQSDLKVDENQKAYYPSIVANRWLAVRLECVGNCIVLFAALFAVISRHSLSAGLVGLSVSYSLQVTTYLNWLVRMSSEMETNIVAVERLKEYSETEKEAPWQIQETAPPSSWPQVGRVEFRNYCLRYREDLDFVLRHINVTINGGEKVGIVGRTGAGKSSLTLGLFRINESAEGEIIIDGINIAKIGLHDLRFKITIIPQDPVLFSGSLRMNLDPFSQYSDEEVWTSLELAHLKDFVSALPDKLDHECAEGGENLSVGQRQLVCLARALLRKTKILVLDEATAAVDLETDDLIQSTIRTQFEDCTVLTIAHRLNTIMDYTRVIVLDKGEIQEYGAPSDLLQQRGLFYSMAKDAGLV

| Activity | Compound |
| --- | --- |
| substrate [+] | C=C(NCC(=O)O)[C@H](CSCCN(CCSC[C@H](NC(=O)CC[C@H](N)C(=O)O)C(=O)NCC(=O)O)c1ccc(CCCC(=O)O)cc1)NC(=O)CC[C@H](N)C(=O)O [BISGLUTATHIONYL CHLORAMBUCIL] |
| substrate [+] | NC(CCC(=O)NC(CSCCN(CCO)c1ccc(CCCC(=O)O)cc1)C(=O)NCC(=O)O)C(=O)O (configuration not stated) [MONOHYDROXY MONOGLUTATHIONYL CHLORAMBUCIL] |
